In experiment [1] the target is T1, human muscarinic acetylcholine M3 receptor (Homo sapiens, UniProt P20309).
T1 construct: expressed in transfected cells; host or cells: CHO-K1 (Chinese Hamster Ovary) cell membranes
The experiment can be described thus: Muscarinic 3 receptor binding assay ([3H]NMS competition, SPA), pIC50. Conditions: [3H]NMS 0.1 nM, CHO-K1 cell membranes expressing human M3 receptor. Summed up: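 SPA beads precoated with human M3-expressing CHO-K1 membranes were incubated 16 h at room temperature with serially diluted compound and 0.1 nM [3H]NMS (pH 7.4 HEPES buffer, MgCl2, BSA, 1% DMSO). Atropine (1 μM) defined non-specific binding; pIC50 is the 50% reduction in specific binding.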

The target in the next experiment is T2, Adrenergic β2 (Homo sapiens, UniProt P07550).
T2 construct: Adherent H292 cells are removed from tissue culture flasks by treatment with Accutase™ cell detachment solution; endogenous in cells; host or cells: H292 cells
Description: Adrenergic β2 mediated cAMP production in H292 cells (AlphaScreen), concentration response. The experiment is classed as cell-based. As to conditions: for EC50: 60 min, 300 μM rolipram, read-out: β2 pEC50 (converted); for β2 Intrinsic Activity: fraction relative to the maximum activity determined for formoterol. Summed up:
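Intracellular cAMP in lysates read by AlphaScreen, calibrated with cAMP standards; curves fitted for pEC50, with intrinsic activity as a fraction of formoterol's maximum. Agonist exposure 60 min at room temperature after 10 min rolipram (300 μM final), 1% DMSO, HEPES-buffered HBSS pH 7.4.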

pIC50: −log10 of the molar value.

T1 sequence (P20309 whole entry): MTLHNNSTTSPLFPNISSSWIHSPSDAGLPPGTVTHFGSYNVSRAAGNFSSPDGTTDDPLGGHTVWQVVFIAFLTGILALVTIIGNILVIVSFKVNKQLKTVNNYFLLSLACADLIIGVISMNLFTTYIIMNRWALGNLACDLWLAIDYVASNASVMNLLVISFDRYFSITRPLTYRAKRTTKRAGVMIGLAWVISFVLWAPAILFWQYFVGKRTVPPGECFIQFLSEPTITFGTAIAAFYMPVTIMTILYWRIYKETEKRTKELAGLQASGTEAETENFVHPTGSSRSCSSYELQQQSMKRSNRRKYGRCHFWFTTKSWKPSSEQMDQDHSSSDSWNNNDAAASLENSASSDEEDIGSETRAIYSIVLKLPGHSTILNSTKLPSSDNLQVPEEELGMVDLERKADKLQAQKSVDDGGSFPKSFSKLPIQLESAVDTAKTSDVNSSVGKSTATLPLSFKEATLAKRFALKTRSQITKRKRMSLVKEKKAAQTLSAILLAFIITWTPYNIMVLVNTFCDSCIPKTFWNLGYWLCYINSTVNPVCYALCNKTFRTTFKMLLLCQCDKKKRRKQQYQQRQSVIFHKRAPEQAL
T2 sequence (P07550 whole entry): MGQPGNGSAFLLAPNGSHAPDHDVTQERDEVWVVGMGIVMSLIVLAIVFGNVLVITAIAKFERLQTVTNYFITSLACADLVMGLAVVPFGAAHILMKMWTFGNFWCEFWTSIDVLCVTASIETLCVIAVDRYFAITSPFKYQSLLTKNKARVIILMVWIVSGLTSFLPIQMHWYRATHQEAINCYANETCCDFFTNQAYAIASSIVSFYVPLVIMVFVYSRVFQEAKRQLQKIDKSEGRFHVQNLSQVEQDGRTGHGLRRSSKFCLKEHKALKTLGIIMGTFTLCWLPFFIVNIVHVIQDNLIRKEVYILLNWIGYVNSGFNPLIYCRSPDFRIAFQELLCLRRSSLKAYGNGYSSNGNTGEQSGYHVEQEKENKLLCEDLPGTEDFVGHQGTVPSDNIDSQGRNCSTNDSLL

What is called pIC50 is the IC50 on a negative log10 scale, so that one unit is a factor of ten. A low value points to a large IC50. As to `CCN(CCNCCc1ccc(O)c2[nH]c(=O)sc12)C(=O)CCOCCc1cccc(CN2CCC3(CC2)CN(C(=O)c2csc(C(C)C)n2)CCO3)c1OC` [Example 68, N-Ethyl-N-(2-(2-(4-hydroxy-2-oxo-2,3-dihydrobenzo[d]thiazol-7-yl)ethylamino)ethyl)-3-(3-((4-(2-isopropylthiazole-4-carbonyl)-1-oxa-4,9-diazaspiro[5.5]undecan-9-yl)methyl)-2-methoxyphenethoxy)propanamide ditrifluoroacetate], the pIC50 in experiment [1] was 8.00. Further, at Adrenergic β2, the EC50 is 10 nM and the “β2 Intrinsic Activity” value came to 0.6.
`CCN(CCNCCc1ccc(O)c2c1OCC(=O)N2)C(=O)CCOCCc1cccc(CN2CCC3(CC2)CN(C(=O)c2csc(CC(C)C)n2)CCO3)c1F` [Example 69, N-Ethyl-3-(2-fluoro-3-((4-(2-isobutylthiazole-4-carbonyl)-1-oxa-4,9-diazaspiro[5.5]undecan-9-yl)methyl)phenethoxy)-N-(2-(2-(5-hydroxy-3-oxo-3,4-dihydro-2H-benzo[b][1,4]oxazin-8-yl)ethylamino)ethyl)propanamide ditrifluoroacetate] had a pIC50 in experiment [1] of 9.60. Further, at Adrenergic β2, the EC50 is 31.6 nM and the “β2 Intrinsic Activity” value came out at 0.8.
On to `COCCN(CCNCCc1ccc(O)c2c1OCC(=O)N2)C(=O)CCOCCc1cccc(CN2CCC3(CC2)CN(C(=O)c2csc(C(C)C)n2)CCO3)c1Cl` [Example 70, 3-(2-Chloro-3-((4-(2-isopropylthiazole-4-carbonyl)-1-oxa-4,9-diazaspiro[5.5]undecan-9-yl)methyl)phenethoxy)-N-(2-(2-(5-hydroxy-3-oxo-3,4-dihydro-2H-benzo[b][1,4]oxazin-8-yl)ethylamino)ethyl)-N-(2-methoxyethyl)propanamide ditrifluoroacetate], for which the pIC50 in experiment [1] was 9.90. Moreover, on Adrenergic β2, the EC50 was 50.1 nM and the “β2 Intrinsic Activity” value turned out to be 1.0.
Take `COCCCN(CCNCCc1ccc(O)c2c1OCC(=O)N2)C(=O)CCOCCc1cccc(CN2CCC3(CC2)CN(C(=O)c2csc(C(C)C)n2)CCO3)c1Cl` [Example 71, 3-(2-Chloro-3-((4-(2-isopropylthiazole-4-carbonyl)-1-oxa-4,9-diazaspiro[5.5]undecan-9-yl)methyl)phenethoxy)-N-(2-(2-(5-hydroxy-3-oxo-3,4-dihydro-2H-benzo[b][1,4]oxazin-8-yl)ethylamino)ethyl)-N-(3-methoxypropyl)propanamide ditrifluoroacetate]: in experiment [1], the pIC50 is 9.60. In addition, at Adrenergic β2, the EC50 was 50.1 nM and the “β2 Intrinsic Activity” value is reported as 1.0.
For `CC(C)c1nc(C(=O)N2CCOC3(CCN(Cc4cccc(CCOCCC(=O)N(CCF)CCNCCc5ccc(O)c6c5OCC(=O)N6)c4F)CC3)C2)cs1` [Example 72, 3-(2-Fluoro-3-((4-(2-isopropylthiazole-4-carbonyl)-1-oxa-4,9-diazaspiro[5.5]undecan-9-yl)methyl)phenethoxy)-N-(2-fluoroethyl)-N-(2-(2-(5-hydroxy-3-oxo-3,4-dihydro-2H-benzo[b][1,4]oxazin-8-yl)ethylamino)ethyl)propanamide ditrifluoroacetate], the pIC50 in experiment [1] was 9.90. Also, at Adrenergic β2, the EC50 was 31.6 nM and the “β2 Intrinsic Activity” value was determined as 0.9.
The molecule `CC(C)c1nc(C(=O)N2CCOC3(CCN(Cc4cccc(CCOCCC(=O)N(CCNCCc5ccc(O)c6c5OCC(=O)N6)CC(F)F)c4F)CC3)C2)cs1` [Example 73, N-(2,2-Difluoroethyl)-3-(2-fluoro-3-((4-(2-isopropylthiazole-4-carbonyl)-1-oxa-4,9-diazaspiro[5.5]undecan-9-yl)methyl)phenethoxy)-N-(2-(2-(5-hydroxy-3-oxo-3,4-dihydro-2H-benzo[b][1,4]oxazin-8-yl)ethylamino)ethyl)propanamide ditrifluoroacetate] showed a pIC50 in experiment [1] of 10.00. Further, on Adrenergic β2, the EC50 was 25.1 nM and the “β2 Intrinsic Activity” value was 1.1.
`CCN(CCNCCc1ccc(O)c2c1OCC(=O)N2)C(=O)CCOCCc1cccc(CN2CCC3(CC2)CN(C(=O)c2csc(C(C)C)c2)CCO3)c1F` [Example 74, N-Ethyl-3-(2-fluoro-3-((4-(5-isopropylthiophene-3-carbonyl)-1-oxa-4,9-diazaspiro[5.5]undecan-9-yl)methyl)phenethoxy)-N-(2-(2-(5-hydroxy-3-oxo-3,4-dihydro-2H-benzo[b][1,4]oxazin-8-yl)ethylamino)ethyl)propanamide ditrifluoroacetate] had a pIC50 in experiment [1] of 9.70. On Adrenergic β2, the EC50 is 100 nM and the “β2 Intrinsic Activity” value came out at 0.7.
Regarding `CCc1nc(C(=O)N2CCOC3(CCN(CCc4ccc(CCOCCC(=O)N(CCCCCO)CCNCCc5ccc(O)c6[nH]c(=O)sc56)cc4)CC3)C2)cs1` [Example 75, 3-(4-(2-(4-(2-Ethylthiazole-4-carbonyl)-1-oxa-4,9-diazaspiro[5.5]undecan-9-yl)ethyl)phenethoxy)-N-(2-(2-(4-hydroxy-2-oxo-2,3-dihydrobenzo[d]thiazol-7-yl)ethylamino)ethyl)-N-(5-hydroxypentyl)propanamide diformate], in experiment [1], the pIC50 was 9.30. In addition, on Adrenergic β2, the EC50 is 50.1 nM and the “β2 Intrinsic Activity” value stood at 0.9.
For the molecule `CCc1nc(C(=O)N2CCOC3(CCN(CCc4ccc(CCOCCC(=O)N(CCCCCCO)CCNCCc5ccc(O)c6[nH]c(=O)sc56)cc4)CC3)C2)cs1` [Example 76, 3-(4-(2-(4-(2-Ethylthiazole-4-carbonyl)-1-oxa-4,9-diazaspiro[5.5]undecan-9-yl)ethyl)phenethoxy)-N-(2-(2-(4-hydroxy-2-oxo-2,3-dihydrobenzo[d]thiazol-7-yl)ethylamino)ethyl)-N-(6-hydroxyhexyl)propanamide diformate], in experiment [1], the pIC50 was 9.20. At Adrenergic β2, the EC50 is 50.1 nM and the “β2 Intrinsic Activity” value is 1.0.
In experiment [1], `CCCCc1nc(C(=O)N2CCOC3(CCN(Cc4cccc(CCOCCC(=O)N(CC)CCNCCc5ccc(O)c6c5OCC(=O)N6)c4Cl)CC3)C2)cs1` [Example 77, 3-(3-((4-(2-Butylthiazole-4-carbonyl)-1-oxa-4,9-diazaspiro[5.5]undecan-9-yl)methyl)-2-chlorophenethoxy)-N-ethyl-N-(2-(2-(5-hydroxy-3-oxo-3,4-dihydro-2H-benzo[b][1,4]oxazin-8-yl)ethylamino)ethyl)propanamide ditrifluoroacetate] showed a pIC50 of 8.40. Further, at Adrenergic β2, the EC50 was 12.6 nM and the “β2 Intrinsic Activity” value worked out at 0.8.
On the same counts, the results for `CCN(CCNCCc1ccc(O)c2[nH]c(=O)sc12)C(=O)CCOCCc1cc(CCN2CCC3(CC2)CN(C(=O)c2csc(C(C)C)n2)CCO3)cs1` [Example 78, N-Ethyl-N-(2-(2-(4-hydroxy-2-oxo-2,3-dihydrobenzo[d]thiazol-7-yl)ethylamino)ethyl)-3-(2-(4-(2-(4-(2-isopropylthiazole-4-carbonyl)-1-oxa-4,9-diazaspiro[5.5]undecan-9-yl)ethyl)thiophen-2-yl)ethoxy)propanamide ditrifluoroacetate] are 8.60, 12.6 nM and 1.0.
Take `CC(C)c1nc(C(=O)N2CCOC3(CCN(Cc4cccc(CCOCCC(=O)N(CCNCCc5ccc(O)c6c5OCC(=O)N6)CC(F)(F)F)c4F)CC3)C2)cs1` [Example 79, ditrifluoroacetate]: the pIC50 in experiment [1] is 9.90. In addition, on Adrenergic β2, the EC50 was 126 nM and the “β2 Intrinsic Activity” value is listed as 1.0.

Values taken from US8476265B2, “Compounds-801” (AstraZeneca AB, priority 2010, dated 2013).
